{
  "source": "patent US20230313313A1",
  "about": "“BIOMARKERS FOR CANCER THERAPY USING MDM2 ANTAGONISTS” (OTSUKA PHARMACEUTICAL CO., LTD., priority 2020, published 2023)",
  "key": {"[1]": {"tested_on": "MV4-11 cells", "experiment": "Alamar Blue proliferation assay, MV4-11 overexpressing SKP2 vs control", "type": "cell-based, human", "conditions": "MV4-11 SKP2 OE compared to control", "procedure": "Precision LentiORF Transduction:\nPrecision LentiORF Lentiviral Transduction Particles (Cat. OHS5900-224629438, Dharmacon, UK) were used to overexpress SKP2 in the MV4-11 AML cell line. Stable gene overexpression was established by cellular resistance to blasticidin (5 μg/ml) and was confirmed at the protein level by western blot. The Precision LentiORF control empty vector (Dharmacon, UK) served as a negative control.\nThe number of viable cells was determined by Alamar Blue assay (Bio-Rad, Irvine, CA, USA). All cell lines were grown and assayed in RPMI-1640+10% FBS medium.\nCompounds were diluted first in DMSO and then into serum-free medium, before addition to triplicate wells of the cultured cells to give a 0.1% DMSO final concentration. […] Twenty μl of Alamar Blue™ (AbD Serotec/Bio-Rad) was added to each well and plates were then incubated for 4-6 h at 37° C. in an atmosphere of 5% CO2 and air. Plates were then read at 535 nm (excitation) and 590 nm (emission) on a SpectraMax Gemini reader (Molecular Devices, San Jose, CA, USA)."}, "[2]": {"tested_on": "OCI-AML3 cells", "experiment": "Induction of apoptosis by cleaved caspase-3 cytometry, combination with IAP antagonist", "type": "cell-based, human", "conditions": "0.1 μM Compound 1 with 1 μM ASTX660 and 1 ng/ml TNF-alpha, 72 h", "experimental": "Cleaved caspase-3 staining was recorded in the FL1 (green) channel, with unstained and DMSO control wells being used to set the gated stained and unstained cell populations—allowing the percentage of cells that are apoptotic to be calculated."}, "[3]": {"tested_on": "SN40R2", "experiment": "Protocol A: SN40R2 growth inhibition, sulphorhodamine B (SRB) method", "conditions": "72 h, read-out: SN40R2 IC50 (Protocol A)", "experimental": "Following incubation with the SRB dye at room temperature for 30 min, the plates were washed with 1% acetic acid and left to dry. […] The GI50 was calculated by non-linear regression analysis of the data using Prism v4.0 statistical software."}, "[4]": {"tested_on": "multiple myeloma (MM) cells", "conditions": "in vitro and ex vivo; cited from earlier work"}, "[5]": {"tested_on": "human leukaemia models", "conditions": "by inducing MDM2 degradation; cited from earlier work"}, "[6]": {"tested_on": "cancer cell lines", "conditions": "cited from earlier work"}, "[7]": {"tested_on": "tumour growth", "conditions": "inducing mitochondrial effects of p53; cited from earlier work"}},
  "note": "Entries after “also recorded” stand apart in the source; their conditions may differ.",
  "data": [
    {"molecule": "CC1(C)CCC(CN2CCN(c3ccc(C(=O)NS(=O)(=O)c4ccc(NCC5CCOCC5)c([N+](=O)[O-])c4)c(Oc4cnc5[nH]ccc5c4)c3)CC2)=C(c2ccc(Cl)cc2)C1", "note": "[ABT-199, reference compound]", "values": [
      {"measurement": "effect of SKP2 overexpression on cytotoxicity / sensitivity", "setting": "[1]", "value": "does not modulate sensitivity; also recorded: no difference"}
    ]},
    {"molecule": "C[C@@H]1CN(CC(=O)N2CC(C)(C)c3nc(CO)c(Cc4ccc(F)cc4)cc32)[C@@H](CN2CCOC[C@H]2C)CN1", "note": "[ASTX660, 1-{6-[(4-fluorophenyl)methyl]-5-(hydroxymethyl)-3,3-dimethyl-1H,2H,3H-pyrrolo[3,2-b]pyridin-1-yl}-2-[(2R,5R)-5-methyl-2-{[(3R)-3-methylmorpholin-4-yl]methyl}piperazin-1-yl]ethan-1-one, reference compound]", "values": [
      {"measurement": "level of apoptosis (cleaved caspase-3), combination", "setting": "[2]", "value": "sensitises"}
    ]},
    {"molecule": "CC(C)(O)c1ccc2c(c1)C(=O)N(Cc1ccc(Cl)cc1)[C@@]2(OCC1(CO)CC1)c1ccc(Cl)cc1", "note": "[Example 1, (3R)-3-(4-chlorophenyl)-2-[(4-chlorophenyl)methyl]-3-{[1-(hydroxymethyl)cyclopropyl]methoxy}-6-(2-hydroxypropan-2-yl)-2,3-dihydro-1H-isoindol-1-one]", "values": [
      {"measurement": "IC50", "setting": "[3]", "value": 7.5, "unit": "µM"}
    ]},
    {"molecule": "CC(C)(O)c1cc(F)c2c(c1)C(=O)N(Cc1ccc(Cl)cc1)[C@@]2(OCC1(CO)CC1)c1ccc(Cl)cc1", "note": "[Example 2, (3R)-3-(4-chlorophenyl)-2-[(4-chlorophenyl)methyl]-4-fluoro-3-{[1-(hydroxymethyl)cyclopropyl]methoxy}-6-(2-hydroxypropan-2-yl)-2,3-dihydro-1H-isoindol-1-one]", "values": [
      {"measurement": "IC50", "setting": "[3]", "value": 17, "unit": "µM"}
    ]},
    {"molecule": "CC(O)(CN1CCNCC1)c1cc(F)c2c(c1)C(=O)N(Cc1ccc(Cl)cc1S(C)(=O)=O)[C@@]2(OCC1(CO)CC1)c1ccc(Cl)cc1", "note": "(stereo partly drawn) [Example 43, (3R)-2-[(4-chloro-2-methanesulfonylphenyl)methyl]-3-(4-chlorophenyl)-4-fluoro-6-[2-hydroxy-1-(piperazin-1-yl)propan-2-yl]-3-{[1-(hydroxymethyl)cyclopropyl]methoxy}-2,3-dihydro-1H-isoindol-1-one]", "values": [
      {"measurement": "IC50", "setting": "[3]", "value": 2, "unit": "µM"}
    ]},
    {"molecule": "c1ccc2c(CCNc3ccc(Nc4ccncc4)cc3)c[nH]c2c1", "note": "[JNJ 26854165]", "values": [
      {"measurement": "activity against multiple myeloma (MM) cells", "setting": "[4]", "value": "potent activity"}
    ]},
    {"molecule": "O=C(O)C(F)(F)F.O=C1CCC(N2Cc3c(C#CCCCNC(=O)c4ccc(NC(=O)[C@@H]5NC6(CCCCC6)[C@@]6(C(=O)Nc7cc(Cl)ccc76)[C@H]5c5ccnc(Cl)c5F)cc4)cccc3C2=O)C(=O)N1", "note": "(stereo partly drawn) [LE-004]", "values": [
      {"measurement": "growth of human leukaemia models in mice", "setting": "[5]", "value": "efficiently inhibited growth"}
    ]},
    {"molecule": "CC(C)(C)C[C@@H]1N[C@@H](C(=O)N[C@H]2CC[C@H](O)CC2)[C@H](c2cccc(Cl)c2F)[C@]12C(=O)Nc1cc(Cl)ccc12", "note": "[MI-773]", "values": [
      {"measurement": "cell growth in cancer cell lines", "setting": "[6]", "value": "potently inhibits cell growth"}
    ]},
    {"molecule": "COC1CC(C(N)=O)CCC1NC(=O)[C@@H]1N[C@@H](CC(C)(C)C)[C@@]2(C(=O)Nc3cc(Cl)ccc32)[C@H]1c1cccc(Cl)c1F", "note": "(stereo partly drawn) [RO-8994]", "values": [
      {"measurement": "tumour growth", "setting": "[7]", "value": "inhibit tumour growth"}
    ]}
  ]
}
